Literature values in PMC5560747, “Computational-experimental approach to drug-target interaction mapping: A case study on kinase inhibitors” (PLoS Computational Biology, 2017).

Experiments:
Parameters in all cases: method as in Gao et al. [42]
[1] = system: RPS6KA5; conditions: ref Gao et al. [42], cited from earlier work
[2] = system: PIM1; conditions: ref Gao et al. [42], cited from earlier work
[3] = system: ALK; conditions: ref Gao et al. [42], cited from earlier work
[4] = system: CSNK1G1; conditions: ref Gao et al. [42], cited from earlier work
[5] = system: STK17A; conditions: ref Gao et al. [42], cited from earlier work
[6] = biological target: PYK2 (Homo sapiens, UniProt Q14289); conditions: ref Gao et al. [42], cited from earlier work
[7] = system: TRKB; conditions: ref Gao et al. [42], cited from earlier work
[8] = system: EPHA2; conditions: ref Gao et al. [42], cited from earlier work
[9] = system: GSK3A; conditions: ref Gao et al. [42], cited from earlier work
[10] = system: RSK2; conditions: ref Gao et al. [42], cited from earlier work
[11] = biological target: FAK (Homo sapiens, UniProt Q05397); conditions: ref Gao et al. [42]; cited from earlier work
[12] = system: IRAK4; conditions: ref Gao et al. [42], cited from earlier work
[13] = biological target: FYN A (Homo sapiens, UniProt P06241); conditions: ref Gao et al. [42], cited from earlier work
[14] = system: ROCK2; conditions: ref Gao et al. [42], cited from earlier work
[15] = system: RET; conditions: ref Gao et al. [42], cited from earlier work
[16] = system: ROCK1; conditions: ref Gao et al. [42], cited from earlier work
[17] = system: FMS; conditions: ref Gao et al. [42], cited from earlier work
[18] = system: CAMK2B; conditions: ref Gao et al. [42], cited from earlier work
[19] = system: SGK1; conditions: ref Gao et al. [42], cited from earlier work

FYN A, sequence (P06241 whole entry): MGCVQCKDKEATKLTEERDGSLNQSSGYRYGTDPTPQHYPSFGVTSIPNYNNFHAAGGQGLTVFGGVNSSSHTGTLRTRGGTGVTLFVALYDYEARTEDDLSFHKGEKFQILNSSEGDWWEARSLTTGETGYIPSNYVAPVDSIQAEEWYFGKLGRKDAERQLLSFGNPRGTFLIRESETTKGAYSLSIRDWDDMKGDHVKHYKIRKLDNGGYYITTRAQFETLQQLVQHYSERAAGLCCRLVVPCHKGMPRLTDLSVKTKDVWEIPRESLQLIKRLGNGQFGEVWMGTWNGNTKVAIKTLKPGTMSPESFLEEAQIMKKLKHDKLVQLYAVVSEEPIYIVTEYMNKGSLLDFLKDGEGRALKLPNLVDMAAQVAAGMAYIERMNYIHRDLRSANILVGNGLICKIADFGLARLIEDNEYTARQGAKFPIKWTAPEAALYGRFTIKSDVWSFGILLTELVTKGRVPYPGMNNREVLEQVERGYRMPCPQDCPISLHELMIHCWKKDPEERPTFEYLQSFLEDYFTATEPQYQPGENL
PYK2, sequence (Q14289 whole entry): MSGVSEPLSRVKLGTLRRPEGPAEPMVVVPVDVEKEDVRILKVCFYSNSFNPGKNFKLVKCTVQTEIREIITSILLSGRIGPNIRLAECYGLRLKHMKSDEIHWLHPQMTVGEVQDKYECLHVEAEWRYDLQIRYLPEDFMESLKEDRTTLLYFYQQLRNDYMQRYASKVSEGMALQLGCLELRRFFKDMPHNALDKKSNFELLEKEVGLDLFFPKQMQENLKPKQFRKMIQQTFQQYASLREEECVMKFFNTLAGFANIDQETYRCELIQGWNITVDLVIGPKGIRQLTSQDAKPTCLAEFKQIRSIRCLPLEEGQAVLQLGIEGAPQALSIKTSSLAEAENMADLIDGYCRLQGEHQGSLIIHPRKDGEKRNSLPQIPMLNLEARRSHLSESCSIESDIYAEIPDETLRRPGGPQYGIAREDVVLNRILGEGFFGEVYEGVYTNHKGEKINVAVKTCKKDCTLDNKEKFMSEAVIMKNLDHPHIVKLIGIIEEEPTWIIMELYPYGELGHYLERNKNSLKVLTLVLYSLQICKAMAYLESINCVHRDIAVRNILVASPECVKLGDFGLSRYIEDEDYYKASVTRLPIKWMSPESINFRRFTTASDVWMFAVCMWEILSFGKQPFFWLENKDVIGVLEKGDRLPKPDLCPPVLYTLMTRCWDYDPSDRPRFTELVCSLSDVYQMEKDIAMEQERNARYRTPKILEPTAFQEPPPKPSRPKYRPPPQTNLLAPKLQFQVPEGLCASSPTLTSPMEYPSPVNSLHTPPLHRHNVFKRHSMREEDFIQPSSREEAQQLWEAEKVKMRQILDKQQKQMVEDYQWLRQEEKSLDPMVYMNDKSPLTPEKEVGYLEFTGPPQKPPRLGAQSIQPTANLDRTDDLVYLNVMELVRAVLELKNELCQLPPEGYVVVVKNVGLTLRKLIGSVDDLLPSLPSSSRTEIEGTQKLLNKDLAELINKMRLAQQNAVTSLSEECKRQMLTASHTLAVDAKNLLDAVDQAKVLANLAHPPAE
FAK, sequence (Q05397 whole entry): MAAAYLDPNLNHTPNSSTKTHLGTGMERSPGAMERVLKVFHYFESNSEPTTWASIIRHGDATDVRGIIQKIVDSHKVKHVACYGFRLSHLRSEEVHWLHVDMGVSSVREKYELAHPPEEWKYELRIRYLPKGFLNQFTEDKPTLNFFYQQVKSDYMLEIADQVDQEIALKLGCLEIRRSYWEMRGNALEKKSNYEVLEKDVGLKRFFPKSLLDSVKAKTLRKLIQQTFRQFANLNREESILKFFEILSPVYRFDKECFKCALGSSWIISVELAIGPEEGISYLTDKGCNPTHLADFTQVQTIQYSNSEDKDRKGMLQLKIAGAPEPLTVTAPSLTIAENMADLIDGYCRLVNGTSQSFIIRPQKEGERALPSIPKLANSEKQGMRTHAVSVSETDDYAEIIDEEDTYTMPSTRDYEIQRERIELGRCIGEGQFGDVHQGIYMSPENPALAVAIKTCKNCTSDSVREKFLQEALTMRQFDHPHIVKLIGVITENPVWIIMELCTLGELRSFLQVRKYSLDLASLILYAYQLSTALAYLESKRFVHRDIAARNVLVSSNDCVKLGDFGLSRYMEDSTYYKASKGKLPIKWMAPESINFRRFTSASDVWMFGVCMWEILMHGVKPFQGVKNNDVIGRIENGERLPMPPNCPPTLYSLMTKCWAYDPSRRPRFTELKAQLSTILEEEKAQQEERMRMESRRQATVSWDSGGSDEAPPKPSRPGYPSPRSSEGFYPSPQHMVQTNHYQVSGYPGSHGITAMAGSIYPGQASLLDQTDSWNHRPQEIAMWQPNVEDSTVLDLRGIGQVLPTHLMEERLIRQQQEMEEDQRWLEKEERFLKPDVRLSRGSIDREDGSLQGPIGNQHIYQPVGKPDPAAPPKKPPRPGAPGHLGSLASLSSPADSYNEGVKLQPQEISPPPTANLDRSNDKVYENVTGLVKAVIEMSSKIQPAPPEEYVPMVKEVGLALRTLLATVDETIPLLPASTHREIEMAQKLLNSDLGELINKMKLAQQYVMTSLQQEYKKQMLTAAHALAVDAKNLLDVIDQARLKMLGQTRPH

For `COc1cc2nccc(Oc3ccc(NC(=O)Nc4cc(C)on4)c(Cl)c3)c2cc1OC` [TIVOZANIB, Tivozanib], the “Gao et al. % of activity remaining at 1 µM” value ([1]; 1 µM) is given as 107%, the “Gao et al. % of activity remaining at 10 µM” value ([1]; 10 µM) is given as 80% and the “Gao et al. % of activity remaining at 1 µM” value ([2]; 1 µM) is given as 95%. For the same compound, the “Gao et al. % of activity remaining at 10 µM” value ([2]; 10 µM) was 86%, the “Gao et al. % of activity remaining at 1 µM” value ([3]; 1 µM) was 83% and the “Gao et al. % of activity remaining at 10 µM” value ([3]; 10 µM) was 38%. For the same compound, the “Gao et al. % of activity remaining at 1 µM” value ([4]; 1 µM) was 89%, the “Gao et al. % of activity remaining at 10 µM” value ([4]; 10 µM) was 57% and the “Gao et al. % of activity remaining at 1 µM” value ([5]; 1 µM) was 116%. The “Gao et al. % of activity remaining at 10 µM” value ([5]; 10 µM) was 87%, the “Gao et al. % of activity remaining at 1 µM” value ([6]; 1 µM) was 34% and the “Gao et al. % of activity remaining at 10 µM” value ([6]; 10 µM) was 8%. For the same compound, the “Gao et al. % of activity remaining at 1 µM” value ([7]; 1 µM) was 42%, the “Gao et al. % of activity remaining at 10 µM” value ([7]; 10 µM) was -10% and the “Gao et al. % of activity remaining at 1 µM” value ([8]; 1 µM) was -3%. For the same compound, the “Gao et al. % of activity remaining at 10 µM” value ([8]; 10 µM) was -3%, the “Gao et al. % of activity remaining at 1 µM” value ([9]; 1 µM) was 107% and the “Gao et al. % of activity remaining at 10 µM” value ([9]; 10 µM) was 123%. For the same compound, the “Gao et al. % of activity remaining at 1 µM” value ([10]; 1 µM) was 60%, the “Gao et al. % of activity remaining at 10 µM” value ([10]; 10 µM) was 35% and the “Gao et al. % of activity remaining at 10 µM” value [11] was 35%. The “Gao et al. % of activity remaining at 1 µM” value ([12]; 1 µM) was 85%, the “Gao et al. % of activity remaining at 10 µM” value ([12]; 10 µM) was 47% and the “Gao et al. % of activity remaining at 1 µM” value ([13]; 1 µM) was 5%. For the same compound, the “Gao et al. % of activity remaining at 10 µM” value ([13]; 10 µM) was 1%, the “Gao et al. % of activity remaining at 1 µM” value ([14]; 1 µM) was 76% and the “Gao et al. % of activity remaining at 10 µM” value ([14]; 10 µM) was 51%. For the same compound, the “Gao et al. % of activity remaining at 1 µM” value ([15]; 1 µM) was 0%, the “Gao et al. % of activity remaining at 10 µM” value ([15]; 10 µM) was -1% and the “Gao et al. % of activity remaining at 1 µM” value ([16]; 1 µM) was 113%. For the same compound, the “Gao et al. % of activity remaining at 10 µM” value ([16]; 10 µM) was 112%, the “Gao et al. % of activity remaining at 1 µM” value ([17]; 1 µM) was 0% and the “Gao et al. % of activity remaining at 10 µM” value ([17]; 10 µM) was 0%. For the same compound, the “Gao et al. % of activity remaining at 1 µM” value ([18]; 1 µM) was 97%, the “Gao et al. % of activity remaining at 10 µM” value ([18]; 10 µM) was 69% and the “Gao et al. % of activity remaining at 1 µM” value ([19]; 1 µM) was 83%. The “Gao et al. % of activity remaining at 10 µM” value ([19]; 10 µM) was 64%.
